Test results reported in PubChem BioAssay (NCI).
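Five compound concentrations were applied to cells in 96-well plates for 48 hours; endpoints were derived by simple linear interpolation of the resulting dose-response curve. At the GI50, growth is halved. TGI marks complete inhibition of growth.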

What was measured:
Assay in all cases: NCI tumour cell line growth inhibition, 48 h
HCC-2998 colon = system: HCC-2998 colon
MOLT-4 leukemia = system: MOLT-4 leukemia
HS 578T breast = system: HS 578T breast
SW-620 colon = system: SW-620 colon
IGROV1 ovarian = system: IGROV1 ovarian
SF-539 CNS = system: SF-539 CNS
HOP-62 NSCLC = system: HOP-62 NSCLC
ACHN renal = system: ACHN renal
A549 NSCLC = system: A549 NSCLC
TK-10 renal = system: TK-10 renal
BT-549 breast = system: BT-549 breast
NCI/ADR-RES ovarian = system: NCI/ADR-RES ovarian
OVCAR-5 ovarian = system: OVCAR-5 ovarian
786-0 renal = system: 786-0 renal
K-562 leukemia = system: K-562 leukemia
PC-3 prostate = system: PC-3 prostate
UO-31 renal = system: UO-31 renal
SN12C renal = system: SN12C renal
SNB-19 CNS = system: SNB-19 CNS
OVCAR-4 ovarian = system: OVCAR-4 ovarian
MDA-MB-231 breast = system: MDA-MB-231 breast
EKVX NSCLC = system: EKVX NSCLC
M14 melanoma = system: M14 melanoma
SK-MEL-5 melanoma = system: SK-MEL-5 melanoma
NCI-H226 lung = system: NCI-H226 lung
SK-MEL-2 melanoma = system: SK-MEL-2 melanoma
SF-295 CNS = system: SF-295 CNS
NCI-H522 lung = system: NCI-H522 lung
HT29 colon = system: HT29 colon
MDA-MB-435 = system: MDA-MB-435
NCI-H460 lung = system: NCI-H460 lung
MALME-3M melanoma = system: MALME-3M melanoma
DU-145 prostate = system: DU-145 prostate
SK-MEL-28 melanoma = system: SK-MEL-28 melanoma
CCRF-CEM leukemia = system: CCRF-CEM leukemia
HL-60(TB) leukemia = system: HL-60(TB) leukemia
CAKI-1 renal = system: CAKI-1 renal
OVCAR-3 ovarian = system: OVCAR-3 ovarian
UACC-62 melanoma = system: UACC-62 melanoma
KM12 colon = system: KM12 colon
LOX IMVI melanoma = system: LOX IMVI melanoma
RPMI-8226 leukemia = system: RPMI-8226 leukemia
UACC-257 melanoma = system: UACC-257 melanoma
OVCAR-8 ovarian = system: OVCAR-8 ovarian
COLO 205 colon = system: COLO 205 colon
SK-OV-3 ovarian = system: SK-OV-3 ovarian
SNB-75 CNS = system: SNB-75 CNS
HCT-15 colon = system: HCT-15 colon
U251 CNS = system: U251 CNS
SR leukemia = system: SR leukemia
HOP-92 NSCLC = system: HOP-92 NSCLC
HCT-116 colon = system: HCT-116 colon
NCI-H23 lung = system: NCI-H23 lung
MCF7 breast = system: MCF7 breast
A498 renal = system: A498 renal
RXF 393 renal = system: RXF 393 renal
SF-268 CNS = system: SF-268 CNS
T-47D breast = system: T-47D breast

CC(=O)Nc1cccc(C#Cc2cncnc2Nc2ccc(OCc3cccc(F)c3)c(Cl)c2)n1
GI50 (HCC-2998 colon): > 25 µM
TGI (HCC-2998 colon): > 25 µM
GI50 (MOLT-4 leukemia): > 25 µM
TGI (MOLT-4 leukemia): > 25 µM
GI50 (HS 578T breast): 24.9 µM
TGI (HS 578T breast): > 25 µM
GI50 (SW-620 colon): 23.1 µM
TGI (SW-620 colon): > 25 µM
GI50 (IGROV1 ovarian): 4.2 µM
TGI (IGROV1 ovarian): > 25 µM
GI50 (SF-539 CNS): > 23.3 µM
TGI (SF-539 CNS): > 25 µM
GI50 (HOP-62 NSCLC): 10.3 µM
TGI (HOP-62 NSCLC): > 25 µM
GI50 (ACHN renal): 2.87 µM
TGI (ACHN renal): > 25 µM
GI50 (A549 NSCLC): 6.81 µM
TGI (A549 NSCLC): > 25 µM
GI50 (TK-10 renal): 0.412 µM
TGI (TK-10 renal): > 17.6 µM
GI50 (BT-549 breast): > 25 µM
TGI (BT-549 breast): > 25 µM
GI50 (NCI/ADR-RES ovarian): 20.7 µM
TGI (NCI/ADR-RES ovarian): > 25 µM
GI50 (OVCAR-5 ovarian): > 23.4 µM
TGI (OVCAR-5 ovarian): > 25 µM
GI50 (786-0 renal): > 22.5 µM
TGI (786-0 renal): > 25 µM
GI50 (K-562 leukemia): > 25 µM
TGI (K-562 leukemia): > 25 µM
GI50 (PC-3 prostate): 9.4 µM
TGI (PC-3 prostate): > 25 µM
GI50 (UO-31 renal): 22.5 µM
TGI (UO-31 renal): > 25 µM
GI50 (SN12C renal): > 25 µM
TGI (SN12C renal): > 25 µM
GI50 (SNB-19 CNS): > 21.7 µM
TGI (SNB-19 CNS): > 25 µM
GI50 (OVCAR-4 ovarian): > 22.7 µM
TGI (OVCAR-4 ovarian): > 25 µM
GI50 (MDA-MB-231 breast): 6.04 µM
TGI (MDA-MB-231 breast): > 25 µM
GI50 (EKVX NSCLC): 0.475 µM
TGI (EKVX NSCLC): > 25 µM
GI50 (M14 melanoma): 16.1 µM
TGI (M14 melanoma): > 25 µM
GI50 (SK-MEL-5 melanoma): > 18.8 µM
TGI (SK-MEL-5 melanoma): > 25 µM
GI50 (NCI-H226 lung): > 17.8 µM
TGI (NCI-H226 lung): > 25 µM
GI50 (SK-MEL-2 melanoma): 10.4 µM
TGI (SK-MEL-2 melanoma): > 25 µM
GI50 (SF-295 CNS): 13.7 µM
TGI (SF-295 CNS): > 25 µM
GI50 (NCI-H522 lung): 8.25 µM
TGI (NCI-H522 lung): > 25 µM
GI50 (HT29 colon): 17.6 µM
TGI (HT29 colon): > 25 µM
GI50 (MDA-MB-435): > 20.4 µM
TGI (MDA-MB-435): > 25 µM
GI50 (NCI-H460 lung): 11.9 µM
TGI (NCI-H460 lung): > 25 µM
GI50 (MALME-3M melanoma): 9.55 µM
TGI (MALME-3M melanoma): > 25 µM
GI50 (DU-145 prostate): 8.62 µM
TGI (DU-145 prostate): > 25 µM
GI50 (SK-MEL-28 melanoma): 14.8 µM
TGI (SK-MEL-28 melanoma): > 25 µM
GI50 (CCRF-CEM leukemia): > 25 µM
TGI (CCRF-CEM leukemia): > 25 µM
GI50 (HL-60(TB) leukemia): > 25 µM
TGI (HL-60(TB) leukemia): > 25 µM
GI50 (CAKI-1 renal): 2.28 µM
TGI (CAKI-1 renal): > 25 µM
GI50 (OVCAR-3 ovarian): > 21.6 µM
TGI (OVCAR-3 ovarian): > 25 µM
GI50 (UACC-62 melanoma): 24.4 µM
TGI (UACC-62 melanoma): > 25 µM
GI50 (KM12 colon): > 25 µM
TGI (KM12 colon): > 25 µM
GI50 (LOX IMVI melanoma): > 18.5 µM
TGI (LOX IMVI melanoma): > 25 µM
GI50 (RPMI-8226 leukemia): > 25 µM
TGI (RPMI-8226 leukemia): > 25 µM
GI50 (UACC-257 melanoma): > 21.5 µM
TGI (UACC-257 melanoma): > 25 µM
GI50 (OVCAR-8 ovarian): 15.4 µM
TGI (OVCAR-8 ovarian): > 25 µM
GI50 (COLO 205 colon): > 22.2 µM
TGI (COLO 205 colon): > 25 µM
GI50 (SK-OV-3 ovarian): 1.06 µM
TGI (SK-OV-3 ovarian): > 25 µM
GI50 (SNB-75 CNS): 11.9 µM
TGI (SNB-75 CNS): > 25 µM
GI50 (HCT-15 colon): > 25 µM
TGI (HCT-15 colon): > 25 µM
GI50 (U251 CNS): 7.14 µM
TGI (U251 CNS): > 23.4 µM
GI50 (SR leukemia): > 25 µM
TGI (SR leukemia): > 25 µM
GI50 (HOP-92 NSCLC): 3.61 µM
TGI (HOP-92 NSCLC): 18.2 µM
GI50 (HCT-116 colon): 11.6 µM
TGI (HCT-116 colon): > 25 µM
GI50 (NCI-H23 lung): > 25 µM
TGI (NCI-H23 lung): > 25 µM
GI50 (MCF7 breast): > 25 µM
TGI (MCF7 breast): > 25 µM
GI50 (A498 renal): 1.22 µM
TGI (A498 renal): > 25 µM
GI50 (RXF 393 renal): 20.8 µM
TGI (RXF 393 renal): > 25 µM
GI50 (SF-268 CNS): > 18.8 µM
TGI (SF-268 CNS): > 25 µM
GI50 (T-47D breast): 2.57 µM
TGI (T-47D breast): > 25 µM
